Reference: patent US20170157010A1, “METHODS AND COMPOSITIONS FOR TREATMENT OF DISORDERS ASSOCIATED WITH DAMAGE INDUCED BY FREE RADICALS” (Glycadia, Inc., priority 2015, published 2017)
“And” between values parts separate entries of the source, which are not always exact repeats. Equal values may be shown once.

Key:
[1] = Ultraviolet absorption spectrum; type: physicochemical
Excerpt: Ultraviolet (UV) absorption peaks of 2-(3-chlorophenylamino)phenylacetic acid at 211 and 283 nm, encompassing wavelength range of medium wave UVB (315-280 nm) and short wave UVC (280-190 nm).

[2] = Brain penetration following oral administration in rats (HPLC/MS/MS); type: in vivo; settings: rat; sodium salt by gavage 15 and 60 mg/kg
Protocol: Rat hemi brains were obtained 1,4 and 6 hours after administration by gavage of the sodium salt of 23CPPA at doses of 15 and 60 mg/kg and were mixed with two equivalents of water and homogenized. The resulting homogenate was extracted with acetonitrile containing internal standard and concentrations of the compound were analyzed by high pressure liquid chromatography/two stage mass spectrometry (HPLC/MS/MS). Plasma samples also were collected from the same rats at these time points for measurement of plasma concentrations of the compound.

[3] = ABTS radical cation free radical scavenging (bleaching of absorbance at 734 nm); type: biochemical; settings: ABTSY+ 450 micromolar, pH 7.4
Excerpt: A radical cation of 2,2′-azino-bis(3-ethylbenzthiazoline-6-sulfonic acid) diammonium salt (ABTS) was generated by oxidation with manganese dioxide, forming the blue-green radical cation ABTSY+ with spectrophotometric absorbance at 734 nanommeters (nm). The reaction was initiated by the addition of 23CPPA (5-40 micromolar) to ABTSY+ (450 micromolar) in phosphate buffer (75 millimolar, pH 7.4) and decay of the blue-green radical cation absorbance was monitored over time. Absorbance profiles were obtained with incubation in phosphate buffer (75 millimolar, pH 7.4) as control. The reaction of anti-oxidants with stable free radicals such as ABTSY+ that is generated from ABTS measures their free radical scavenging capacities.

Ultraviolet (UV) absorption peaks [1]: 211 nm and 283 nm | Absorbance ([1]; wavelength 190 nm): 0.5 | Absorbance ([1]; wavelength 195 nm): 0.75 | Absorbance ([1]; wavelength 197 nm): 1.0 | Absorbance ([1]; wavelength 198 nm): 1.25 | Absorbance ([1]; wavelength 199 nm): 1.5 | Absorbance ([1]; wavelength 205 nm): 2.0 | Absorbance ([1]; wavelength 208 nm): 2.1 | Absorbance ([1]; wavelength 211 nm): 2.2 | Absorbance ([1]; wavelength 212 nm): 2.0 | Absorbance ([1]; wavelength 220 nm): 1.25 | Absorbance ([1]; wavelength 222 nm): 1.0 | Absorbance ([1]; wavelength 232 nm): 0.5 | Absorbance ([1]; wavelength 235 nm): 0.45 | Absorbance ([1]; wavelength 239 nm): 0.43 | Absorbance ([1]; wavelength 243 nm): 0.43 | Absorbance ([1]; wavelength 249 nm): 0.43 | Absorbance ([1]; wavelength 252 nm): 0.43 | Absorbance ([1]; wavelength 256 nm): 0.43 | Absorbance ([1]; wavelength 260 nm): 0.5 | Absorbance ([1]; wavelength 272 nm): 0.75 | Absorbance ([1]; wavelength 283 nm): 0.93 | Absorbance ([1]; wavelength 291 nm): 0.75 | Absorbance ([1]; wavelength 300 nm): 0.5 | Absorbance ([1]; wavelength 308 nm): 0.25 | Absorbance ([1]; wavelength 325 nm): 0 | Dose dependence of brain concentrations [2]: dose proportional
SMILES: O=C(O)Cc1ccccc1Nc1cccc(Cl)c1 [23CPPA, 2-[(3-chlorophenyl)amino] phenylacetic acid]
Decay (% of starting absorbance) ([3]; 23CPPA 5 micromolar, 1 minute): 74 % of starting absorbance | Decay (% of starting absorbance) ([3]; 23CPPA 5 micromolar, 2 minutes): 72 % of starting absorbance | Decay (% of starting absorbance) ([3]; 23CPPA 5 micromolar, 3 minutes): 69 % of starting absorbance | Decay (% of starting absorbance) ([3]; 23CPPA 5 micromolar, 4 minutes): 67 % of starting absorbance | Decay (% of starting absorbance) ([3]; 23CPPA 5 micromolar, 5 minutes): 65 % of starting absorbance | Decay (% of starting absorbance) ([3]; 23CPPA 5 micromolar, 6 minutes): 63 % of starting absorbance | Decay (% of starting absorbance) ([3]; 23CPPA 5 micromolar, 7 minutes): 61 % of starting absorbance | Decay (% of starting absorbance) ([3]; 23CPPA 5 micromolar, 8 minutes): 60 % of starting absorbance | Decay (% of starting absorbance) ([3]; 23CPPA 5 micromolar, 9 minutes): 58 % of starting absorbance | Decay (% of starting absorbance) ([3]; 23CPPA 5 micromolar, 10 minutes): 56 % of starting absorbance | Decay (% of starting absorbance) ([3]; 23CPPA 5 micromolar, 11 minutes): 55 % of starting absorbance | Decay (% of starting absorbance) ([3]; 23CPPA 5 micromolar, 12 minutes): 53 % of starting absorbance | Decay (% of starting absorbance) ([3]; 23CPPA 5 micromolar, 13 minutes): 52 % of starting absorbance | Decay (% of starting absorbance) ([3]; 23CPPA 5 micromolar, 14 minutes): 51 % of starting absorbance | Decay (% of starting absorbance) ([3]; 23CPPA 5 micromolar, 15 minutes): 49 % of starting absorbance | Decay (% of starting absorbance) ([3]; 23CPPA 10 micromolar, 1 minute): 57 % of starting absorbance | Decay (% of starting absorbance) ([3]; 23CPPA 10 micromolar, 2 minutes): 56 % of starting absorbance | Decay (% of starting absorbance) ([3]; 23CPPA 10 micromolar, 3 minutes): 53 % of starting absorbance | Decay (% of starting absorbance) ([3]; 23CPPA 10 micromolar, 4 minutes): 52 % of starting absorbance | Decay (% of starting absorbance) ([3]; 23CPPA 10 micromolar, 5 minutes): 51 % of starting absorbance | Decay (% of starting absorbance) ([3]; 23CPPA 10 micromolar, 6 minutes): 50 % of starting absorbance | Decay (% of starting absorbance) ([3]; 23CPPA 10 micromolar, 7 minutes): 48 % of starting absorbance | Decay (% of starting absorbance) ([3]; 23CPPA 10 micromolar, 8 minutes): 47 % of starting absorbance | Decay (% of starting absorbance) ([3]; 23CPPA 10 micromolar, 9 minutes): 46 % of starting absorbance | Decay (% of starting absorbance) ([3]; 23CPPA 10 micromolar, 10 minutes): 44 % of starting absorbance | Decay (% of starting absorbance) ([3]; 23CPPA 10 micromolar, 11 minutes): 44 % of starting absorbance | Decay (% of starting absorbance) ([3]; 23CPPA 10 micromolar, 12 minutes): 43 % of starting absorbance | Decay (% of starting absorbance) ([3]; 23CPPA 10 micromolar, 13 minutes): 43 % of starting absorbance | Decay (% of starting absorbance) ([3]; 23CPPA 10 micromolar, 14 minutes): 42 % of starting absorbance | Decay (% of starting absorbance) ([3]; 23CPPA 10 micromolar, 15 minutes): 42 % of starting absorbance | Decay (% of starting absorbance) ([3]; 23CPPA 20 micromolar, 1 minute): 37 % of starting absorbance | Decay (% of starting absorbance) ([3]; 23CPPA 20 micromolar, 2 minutes): 27 % of starting absorbance | Decay (% of starting absorbance) ([3]; 23CPPA 20 micromolar, 3 minutes): 23 % of starting absorbance | Decay (% of starting absorbance) ([3]; 23CPPA 20 micromolar, 4 minutes): 20 % of starting absorbance | Decay (% of starting absorbance) ([3]; 23CPPA 20 micromolar, 5 minutes): 17 % of starting absorbance | Decay (% of starting absorbance) ([3]; 23CPPA 20 micromolar, 6 minutes): 14 % of starting absorbance | Decay (% of starting absorbance) ([3]; 23CPPA 20 micromolar, 7 minutes): 13 % of starting absorbance | Decay (% of starting absorbance) ([3]; 23CPPA 20 micromolar, 8 minutes): 12 % of starting absorbance | Decay (% of starting absorbance) ([3]; 23CPPA 20 micromolar, 9 minutes): 12 % of starting absorbance | Decay (% of starting absorbance) ([3]; 23CPPA 20 micromolar, 10 minutes): 11 % of starting absorbance | Decay (% of starting absorbance) ([3]; 23CPPA 20 micromolar, 11 minutes): 10 % of starting absorbance | Decay (% of starting absorbance) ([3]; 23CPPA 20 micromolar, 12 minutes): 10 % of starting absorbance | Decay (% of starting absorbance) ([3]; 23CPPA 20 micromolar, 13 minutes): 9 % of starting absorbance | Decay (% of starting absorbance) ([3]; 23CPPA 20 micromolar, 14 minutes): 9 % of starting absorbance | Decay (% of starting absorbance) ([3]; 23CPPA 20 micromolar, 15 minutes): 9 % of starting absorbance | Decay (% of starting absorbance) ([3]; 23CPPA 40 micromolar, 1 minute): 20 % of starting absorbance | Decay (% of starting absorbance) ([3]; 23CPPA 40 micromolar, 2 minutes): 20 % of starting absorbance | Decay (% of starting absorbance) ([3]; 23CPPA 40 micromolar, 3 minutes): 3 % of starting absorbance | Decay (% of starting absorbance) ([3]; 23CPPA 40 micromolar, 4 minutes): 1 % of starting absorbance | Decay (% of starting absorbance) ([3]; 23CPPA 40 micromolar, 5 minutes): 0 % of starting absorbance | Decay (% of starting absorbance) ([3]; 23CPPA 40 micromolar, 6 minutes): 0 % of starting absorbance | Decay (% of starting absorbance) ([3]; 23CPPA 40 micromolar, 7 minutes): 0 % of starting absorbance | Decay (% of starting absorbance) ([3]; 23CPPA 40 micromolar, 8 minutes): 0 % of starting absorbance | Decay (% of starting absorbance) ([3]; 23CPPA 40 micromolar, 9 minutes): 0 % of starting absorbance | Decay (% of starting absorbance) ([3]; 23CPPA 40 micromolar, 10 minutes): 0 % of starting absorbance | Decay (% of starting absorbance) ([3]; 23CPPA 40 micromolar, 11 minutes): 0 % of starting absorbance | Decay (% of starting absorbance) ([3]; 23CPPA 40 micromolar, 12 minutes): 0 % of starting absorbance | Decay (% of starting absorbance) ([3]; 23CPPA 40 micromolar, 13 minutes): 0 % of starting absorbance | Decay (% of starting absorbance) ([3]; 23CPPA 40 micromolar, 14 minutes): 0 % of starting absorbance | Decay (% of starting absorbance) ([3]; 23CPPA 40 micromolar, 15 minutes): 0 % of starting absorbance
